In experiment [1] the test system is THP-1 cells. Briefly: TNFα generation assay. The note with it: Homo sapiens, THP-1, THP-1 cells; Table 22; read-out: IC50 in TNFα generation assay. It is filed as cell-based, human. The procedure, abridged:
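Secreted TNFα in supernatant quantified by ELISA or AlphaLISA after 7 h culture on human IgG-coated wells (10 μg/ml coating). Cells were IFN-γ-differentiated THP-1 (10 ng/ml, 2 days), exposed to compound for 30 min at room temperature before plating.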

For experiment [2], the target named is T1, glutathione S-transferase (GST)-fused full-length human Syk protein (Homo sapiens, UniProt P43405).
T1 construct: (GST)-fused full-length human Syk protein; GST (glutathione S-transferase); purchased Carna Biosciences
Briefly: Syk enzyme assay. The class given is biochemical. The note with it: Syk enzyme assay, Test Example 1; read-out: IC50 of Syk-inhibitory activity. Put shortly:
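Baculovirus-expressed enzyme (1.2 ng) was preincubated with compound in HEPES pH 7.0/MgCl2/DTT buffer, 2 min shaking then 13 min at room temperature. Biotin-EDPDYEWPSA-NH2 (0.4 μM final) and ATP (27 μM final) were added for 40 min at room temperature. EDTA stop, streptavidin-XL/PT66-K TR-FRET at 615/665 nm gave IC50.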

On to `CNc1cccc(-c2cncc(Nc3nc(N[C@@H]4CCCC[C@@H]4N)c(F)cc3C(N)=O)c2)c1` (relative stereo) [Example 004-219, 6-(cis-2-aminocyclohexylamino)-5-fluoro-2-((5-(3-(methylamino)phenyl)pyridin-3-yl)amino)nicotinamide], for which the IC50 is 65 to 130 nM in experiment [1] and under 10 nM in experiment [2].
In the case of `C[C@H](N)[C@H](Nc1nc(Nc2ccc3cnn(C)c3c2)c(C(N)=O)cc1F)C1CC1` [Example 006-370, 6-(((1R,2S)-2-amino-1-cyclopropylpropyl)amino)-5-fluoro-2-((1-methyl-1H-indazol-6-yl)amino)nicotinamide], the IC50 is under 65 nM in experiment [1] and under 10 nM in experiment [2].
For the compound `CCCC[C@H](CN)Nc1nc(Nc2cnc3cc(OC)ccc3c2)c(C(N)=O)cc1F` [Example 006-293, (R)-6-((1-aminohexan-2-yl)amino)-5-fluoro-2-((7-methoxyquinolin-3-yl)amino)nicotinamide], the values for the IC50 in experiment [1] and in experiment [2] were 65 to 130 nM and under 10 nM, respectively.
For the compound `CCCn1ncc2cc(Nc3nc(NC4CCCCC4N)c(F)cc3C(N)=O)ccc21` (centres unmarked) [Example 002-126], the figures for the IC50 in experiment [1] and in experiment [2] were 65 to 130 nM and under 10 nM, respectively.
On the same counts, the results for `CCC[C@@H](Nc1nc(Nc2ccnc(-c3cccc(OC)c3F)c2)c(C(N)=O)cc1F)[C@H](C)N` [Example 006-289, 6-(((2S,3R)-2-aminohexan-3-yl)amino)-5-fluoro-2-((2-(2-fluoro-3-methoxyphenyl)pyridin-4-yl)amino)nicotinamide] are under 65 nM and under 10 nM.
`CCc1nn(C)c2ccc(Nc3nc(N[C@@H]4CCCC[C@@H]4N)c(F)cc3C(N)=O)cc12` [Example 006-451, 6-(((1R,2S)-2-aminocyclohexyl)amino)-2-((3-ethyl-1-methyl-1H-indazol-5-yl)amino)-5-fluoronicotinamide]: the values for the IC50 in experiment [1] and in experiment [2] were under 65 nM and under 10 nM, respectively.
On the same counts, the results for `NC(=O)c1cc(F)c(N[C@@H]2CCCC[C@@H]2N)nc1Nc1cncc(NC(=O)c2ccccn2)c1` (relative stereo) [Example 027-020, N-(5-(6-(cis-2-aminocyclohexylamino)-3-carbamoyl-5-fluoropyridin-2-yl)aminopyridin-3-yl)picolinamide] are 130 to 200 nM and 10 to 50 nM.
For the compound `C[C@H](N)[C@@H](CC1CC1)Nc1nc(Nc2ccc3cnn(C)c3c2)c(C(N)=O)cc1F` [Example 006-361, 6-(((2R,3S)-3-amino-1-cyclopropylbutan-2-yl)amino)-5-fluoro-2-((1-methyl-1H-indazol-6-yl)amino)nicotinamide], the figures for the IC50 in experiment [1] and in experiment [2] were 65 to 130 nM and under 10 nM, respectively.
For `CC[C@@H](Nc1nc(Nc2cccc3cccnc23)c(C(N)=O)cc1F)[C@H](C)N` [Example 006-258, 6-(((2S,3R)-2-aminopentan-3-yl)amino)-5-fluoro-2-((quinolin-8-yl)amino)nicotinamide], the IC50 in experiment [1] was 130 to 200 nM; in experiment [2] it was 50 to 100 nM.
On the same counts, the results for `CCn1nc(C)c2cc(Nc3nc(N[C@H](C4CC4)[C@H](C)N)c(F)cc3C(N)=O)ccc21` [Example 006-583, 6-(((1R,2S)-2-amino-1-cyclopropylpropyl)amino)-2-((1-ethyl-3-methyl-1H-indazol-5-yl)amino)-5-fluoronicotinamide] are under 65 nM and under 10 nM.
Consider `Cn1ncc2cc(Nc3nc(NC[C@@H](N)c4ccccc4)c(F)cc3C(N)=O)ccc21` [Example 006-119, (S)-6-((2-amino-2-phenylethyl)amino)-5-fluoro-2-((1-methyl-1H-indazol-5-yl)amino)nicotinamide], for which the IC50 in experiment [1] lay in the range of 130 to 200 nM; in experiment [2], 10 to 50 nM.
As to `Cc1cncc(Nc2nc(N[C@H](C)CN)c(F)cc2C(N)=O)c1` [Example 006-101, (R)-6-((1-aminopropan-2-yl)amino)-5-fluoro-2-((5-methylpyridin-3-yl)amino)nicotinamide], the IC50 was in the range of 65 to 130 nM in experiment [1] and 10 to 50 nM in experiment [2].
`CCc1cncc(Nc2nc(NC3CCCCC3N)c(F)cc2C(N)=O)c1` (centres unmarked) [Example 002-038]: the IC50 is 65 to 130 nM in experiment [1] and under 10 nM in experiment [2].
With `C[C@H](N)[C@@H](CC1CC1)Nc1nc(Nc2cncc(-n3cccn3)c2)c(C(N)=O)cc1F` [Example 006-392, 2-((5-(1H-pyrazol-1-yl)pyridin-3-yl)amino)-6-(((2R,3S)-3-amino-1-cyclopropylbutan-2-yl)amino)-5-fluoronicotinamide], the IC50 was 65 to 130 nM in experiment [1] and under 10 nM in experiment [2].
With `Cc1ccc(Nc2nc(N[C@@H](CN)CC(C)C)c(F)cc2C(N)=O)cn1` [Example 006-233, (R)-6-((1-amino-4-methylpentan-2-yl)amino)-5-fluoro-2-((6-methylpyridin-3-yl)amino)nicotinamide], the IC50 in experiment [1] is 130 to 200 nM; in experiment [2], 10 to 50 nM.
On the same counts, the results for `CC[C@H](N)[C@@H](C)Nc1nc(Nc2ccc3c(cnn3CCOC)c2)c(C(N)=O)cc1F` [Example 006-363, 6-(((2R,3S)-3-aminopentan-2-yl)amino)-5-fluoro-2-((1-(2-methoxyethyl)-1H-indazol-5-yl)amino)nicotinamide] are 65 to 130 nM and under 10 nM.
On the same counts, the results for `CCC[C@@H](Nc1nc(Nc2cc(OC)nc(OC)c2)c(C(N)=O)cc1F)[C@H](C)N` [Example 006-248, 6-(((2S,3R)-2-aminohexan-3-yl)amino)-2-((2,6-dimethoxypyridin-4-yl)amino)-5-fluoronicotinamide] are 65 to 130 nM and under 10 nM.
Turning to `C[C@H](N)[C@@H](C)Nc1nc(Nc2ccc3scnc3c2)c(C(N)=O)cc1F` (racemic) [Example 006-188, 6-(((2R,3S)-3-aminobutan-2-yl)amino)-2-(benzo[d]thiazol-5-ylamino)-5-fluoronicotinamide 6-(((2S,3R)-3-aminobutan-2-yl)amino)-2-(benzo[d]thiazol-5-ylamino)-5-fluoronicotinamide], the IC50 in experiment [1] is 65 to 130 nM; in experiment [2], under 10 nM.
On the same counts, the results for `COc1ccc2cc(Nc3nc(N[C@H](C)[C@H](C)N)c(F)cc3C(N)=O)cnc2c1` (racemic) [Example 006-174, 6-(((2R,3S)-3-aminobutan-2-yl)amino)-5-fluoro-2-((7-methoxyquinolin-3-yl)amino)nicotinamide 6-(((2S,3R)-3-aminobutan-2-yl)amino)-5-fluoro-2-((7-methoxyquinolin-3-yl)amino)nicotinamide] are under 65 nM and under 10 nM.
In the case of `COCCn1ncc2cc(Nc3nc(N[C@H](CC(C)C)[C@H](C)N)c(F)cc3C(N)=O)ccc21` [Example 006-385, 6-(((2S,3R)-2-amino-5-methylhexan-3-yl)amino)-5-fluoro-2-((1-(2-methoxyethyl)-1H-indazol-5-yl)amino)nicotinamide], the IC50 in experiment [1] was 65 to 130 nM; in experiment [2] it was under 10 nM.
Consider `COc1nccc2cc(Nc3nc(N[C@@H]4CCCC[C@@H]4N)c(F)cc3C(N)=O)ccc12` (relative stereo) [Example 004-164, 6-(cis-2-aminocyclohexylamino)-5-fluoro-2-((1-methoxyisoquinolin-6-yl)amino)-nicotinamide], for which the IC50 was 130 to 200 nM in experiment [1] and under 10 nM in experiment [2].
For the compound `COc1ccc(-c2cncc(Nc3nc(N[C@@H](CN)CC(C)C)c(F)cc3C(N)=O)c2)cc1` [Example 006-291, (R)-6-((1-amino-4-methylpentan-2-yl)amino)-5-fluoro-2-((5-(4-methoxyphenyl)pyridin-3-yl)amino)nicotinamide], the IC50 in experiment [1] is 130 to 200 nM; in experiment [2], 10 to 50 nM.
On the same counts, the results for `CCC[C@@H](Nc1nc(Nc2ccc3c(cnn3C)c2)c(C(N)=O)cc1F)[C@H](C)N` [Example 006-236, 6-(((2S,3R)-2-aminohexan-3-yl)amino)-5-fluoro-2-((1-methyl-1H-indazol-5-yl)amino)nicotinamide] are under 65 nM and under 10 nM.
On the same counts, the results for `NC(=O)c1cc(F)c(N[C@@H]2CCCC[C@@H]2N)nc1Nc1ccc2ncncc2c1` (relative stereo) [Example 006-062, 6-(cis-2-aminocyclohexylamino)-5-fluoro-2-(quinazolin-6-ylamino)nicotinamide] are under 65 nM and under 10 nM.
On the same counts, the results for `CC(C)C[C@H](CN)Nc1nc(Nc2cccc3ncccc23)c(C(N)=O)cc1F` [Example 006-229, (R)-6-((1-amino-4-methylpentan-2-yl)amino)-5-fluoro-2-((quinolin-5-yl)amino)nicotinamide] are 65 to 130 nM and under 10 nM.
As to `CCCOc1cc(Nc2nc(N[C@H](C)[C@H](C)N)c(F)cc2C(N)=O)ccn1` (racemic) [Example 006-187, 6-(((2R,3S)-3-aminobutan-2-yl)amino)-5-fluoro-2-((2-propoxypyridin-4-yl)amino)nicotinamide 6-(((2S,3R)-3-aminobutan-2-yl)amino)-5-fluoro-2-((2-propoxypyridin-4-yl)amino)nicotinamide], the values for the IC50 in experiment [1] and in experiment [2] were 130 to 200 nM and under 10 nM, respectively.
As for `COc1ncc(Nc2nc(N[C@@H]3CCCC[C@@H]3N)c(F)cc2C(N)=O)cc1F` [Example 006-484, 6-(((1R,2S)-2-aminocyclohexyl)amino)-5-fluoro-2-((5-fluoro-6-methoxypyridin-3-yl)amino)nicotinamide], the IC50 fell in the range of 65 to 130 nM in experiment [1] and 10 to 50 nM in experiment [2].
On the same counts, the results for `C[C@H](N)[C@@H](C)Nc1nc(Nc2ccc3ncccc3c2)c(C(N)=O)cc1F` [Example 006-275, 6-(((2R,3S)-3-aminobutan-2-yl)amino)-5-fluoro-2-((quinolin-6-yl)amino)nicotinamide] are under 65 nM and under 10 nM.

These data come from US8895585B2, “Nicotinamide derivative or salt thereof” (FUJIFILM Corporation, priority 2010, dated 2014).
